What was measured:
[1] = Stability of the Diels-Alder adduct and its hydrogenated derivative (observation); format: physicochemical; details: white solid precipitated at 0° C., then warmed
Procedure: At 0° C., a white solid, presumed to be 2, precipitated from solution. […] To confirm the identity of 2, hydrogenation produced stable compound 3 as described below.

[2] = Treatment of patient with chronic hypertension; format: in vivo; details: intravenous, blood concentration of 10 nanomolar
Description: A person being treated with sodium iodide for hyperthyroidism has chronic hypertension (BP of 165/90). The patient is given 4 intravenously to maintain a blood concentration of 10 nanomolar. Blood pressure reduces to 140/85.
Treatment of patient with chronic hypertension with 6 The patient who has chronic hypertension (BP of 165/90) is given 6 intravenously to maintain a blood concentration of 10 nanomolar. Blood pressure reduces to 140/85.

Structure (SMILES) | Stability (retro Diels Alder reaction) [1] | further results
N#CC1(N2OC3C=CC2C3)CCCCC1 (stereo not shown) [Compound 2] | On warming, the solid turned blue, suggesting retro Diels Alder reaction | –
N#CC1(N2OC3CCC2C3)CCCCC1 (stereo not shown) [Compound 3, N-(−1-cyanocyclohexyl)bicyclo[2.2.1]3,4,5,6-tetrahydro-1,2-oxazine] | stable | –
N#CC1(N2OC3CC2C(Br)C3Br)CCCCC1 (stereo not shown) [Compound 4, N-(1-cyanocyclohexyl)bicyclo[2.2.1]4,5-dibromo-3,6-dihydro-1,2-oxazine] | – | Blood pressure ([2]; person treated with sodium iodide, chronic hypertension (BP of 165/90)): 140/85
N#CC1(N2OC3CC2C(S)C3O)CCCCC1 (stereo not shown) [Compound 6, N-(1-Cyanocyclohexyl)bicyclo[2.2.1]4-thio-5-hydroxy-3,6-dihydro-1,2-oxazine] | – | Blood pressure ([2]; patient with chronic hypertension (BP of 165/90)): 140/85
